According to ChEMBL document CHEMBL3232928, “Fragment-to-hit-to-lead discovery of a novel pyridylurea scaffold of ATP competitive dual targeting type II topoisomerase inhibiting antibacterial agents” (J Med Chem, 2013):
≈ marks a conversion by molar mass, not a printed value.

How the values were obtained:
Staphylococcus aureus [1] = assay: Antibacterial activity against methicillin-sensitive wild type Staphylococcus aureus assessed as growth inhibition after 18 to 24 hrs by CLSI broth microdilution method; format: functional
Escherichia coli [2] = assay: Antibacterial activity against tolC efflux pump deficient Escherichia coli W3110 assessed as growth inhibition after 18 to 24 hrs by CLSI broth microdilution method; format: functional
[3] = Solubility of the compound; format: physicochemical
Moraxella catarrhalis = assay: Antibacterial activity against wild type Moraxella catarrhalis ATCC 43617 assessed as growth inhibition after 18 to 24 hrs by CLSI broth microdilution method; format: functional
Escherichia coli [4] = assay: Antibacterial activity against wild type Escherichia coli W3110 assessed as growth inhibition after 18 to 24 hrs by CLSI broth microdilution method; format: functional
[5] = Inhibition of ATPase activity in Escherichia coli GyrA/GyrB by ammonium molybdate/malachite green-based absorbance assay
[6] = Antibacterial activity against Streptococcus pneumoniae D39 NCTC 7466 assessed as growth inhibition after 18 to 24 hrs by CLSI broth microdilution method; format: functional
DNA gyrase subunit B = DNA gyrase subunit B (Staphylococcus aureus, UniProt P0A0K8); assay: Inhibition of ATPase activity in Staphylococcus aureus GyrB tetramer in presence of Escherichia coli GyrA by ammonium molybdate/malachite green-based absorbance assay
Chain of DNA gyrase subunit B (P0A0K8 whole entry): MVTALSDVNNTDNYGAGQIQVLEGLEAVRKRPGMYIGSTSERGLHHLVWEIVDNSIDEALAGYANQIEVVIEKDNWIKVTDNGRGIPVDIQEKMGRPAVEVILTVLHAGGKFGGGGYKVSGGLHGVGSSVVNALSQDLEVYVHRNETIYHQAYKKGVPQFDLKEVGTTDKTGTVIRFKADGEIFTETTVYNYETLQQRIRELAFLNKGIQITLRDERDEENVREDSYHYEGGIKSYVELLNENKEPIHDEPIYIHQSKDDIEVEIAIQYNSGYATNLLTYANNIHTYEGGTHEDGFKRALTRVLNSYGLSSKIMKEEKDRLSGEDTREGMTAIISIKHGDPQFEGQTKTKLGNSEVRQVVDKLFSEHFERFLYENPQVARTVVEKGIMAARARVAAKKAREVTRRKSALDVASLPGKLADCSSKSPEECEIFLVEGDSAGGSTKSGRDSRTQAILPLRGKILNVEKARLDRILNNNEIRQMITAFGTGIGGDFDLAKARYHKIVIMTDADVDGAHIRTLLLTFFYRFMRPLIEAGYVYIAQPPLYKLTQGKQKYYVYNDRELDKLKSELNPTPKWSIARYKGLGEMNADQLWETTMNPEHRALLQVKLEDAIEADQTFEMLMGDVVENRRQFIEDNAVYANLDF

[7] = Inhibition of ATPase activity in Escherichia coli ParE by ammonium molybdate/malachite green-based absorbance assay
[8] = Inhibition of ATPase activity in Escherichia coli ParC/ParE by ammonium molybdate/malachite green-based absorbance assay
[9] = Antibacterial activity against wild type Haemophilus influenzae Rd KW20 ATCC 51907 assessed as growth inhibition after 18 to 24 hrs by CLSI broth microdilution method; format: functional
[10] = Unbound fraction in human at 10 uM after 16 hrs by LC-MS/MS analysis; format: ADME; conditions: plasma
[11] = Clearance in rat plasma at 10 mg/kg, iv administered 15 mins of infusion measured for 0 to 24 hrs by LC-MS/MS analysis; format: ADME, organism-based; design: dose 10 mg/kg, route intravenous
[12] = Octanol-phosphate buffer partition coefficient, log D of the compound at pH 7.4 after 1 hr by shake flask method; format: physicochemical
Staphylococcus aureus [13] = assay: Antibacterial activity against methicillin-resistant and […] Staphylococcus aureus assessed as growth inhibition after 18 to 24 hrs by CLSI broth microdilution method; format: functional
[14] = Volume of distribution at steady state in rat plasma at 10 mg/kg, iv administered 15 mins of infusion measured for 0 to 24 hrs by LC-MS/MS analysis; format: ADME, organism-based; design: dose 10 mg/kg, route intravenous; conditions: read-out: Vdss
[15] = Dissociation constant, pKa of the compound; format: physicochemical

Row | SMILES | MIC (Staphylococcus aureus [1]) | MIC (Escherichia coli [2]) | solubility [3] | MIC (Moraxella catarrhalis) | MIC (Escherichia coli [4]) | IC50 [5] | MIC [6] | IC50 (DNA gyrase subunit B) | IC50 [7] | IC50 [8] | MIC [9] | fraction unbound at 16 h, 10 µM [10] | clearance [11] | logD at 1 h [12] | MIC (Staphylococcus aureus [13]) | Vd [14] | pKa [15]
1 | CCNC(=O)Nc1ccc(-c2nc3cccc(C(N)=O)c3s2)cn1 | > 64 µg/mL | > 64 µg/mL | < 1 µM | > 64 µg/mL | > 64 µg/mL | 94 nM | 1 µg/mL (≈ 2.93 µM) | 39 nM | 71 nM | 12000 nM | > 64 µg/mL |  |  |  |  |  | 
2 | CCNC(=O)Nc1cc(-c2nc(C(F)(F)F)cs2)c(-c2cncc(/C(N)=N/O)c2)cn1 | 0.36 µg/mL (≈ 0.797 µM) | 0.18 µg/mL (≈ 0.399 µM) | 4 µM (≈ 1.81 µg/mL) | 0.18 µg/mL (≈ 0.399 µM) | > 64 µg/mL | 32 nM | < 0.01 µg/mL | 73 nM | 21 nM | 2000 nM | 1.4 µg/mL (≈ 3.1 µM) | 0.35 | 22 mL/min/kg | 2.2 | 0.72 µg/mL (≈ 1.59 µM) |  | 
3 | CCNC(=O)Nc1cc(-c2nc(C(F)(F)F)cs2)c(-c2cncc(C#N)c2)cn1 | 0.33 µg/mL (≈ 0.789 µM) | 0.33 µg/mL (≈ 0.789 µM) | 7 µM (≈ 2.93 µg/mL) | 0.33 µg/mL (≈ 0.789 µM) | > 64 µg/mL | < 10 nM | < 0.084 µg/mL | < 10 nM | < 10 nM | 1100 nM | 21 µg/mL (≈ 50.2 µM) | 0.059 | 110 mL/min/kg | 2.8 | 0.23 µg/mL (≈ 0.55 µM) | 3.4 L/kg | 
4 | CCNC(=O)Nc1cc(-c2nc(C(F)(F)F)cs2)c(-c2cncc(-c3nc(C)no3)c2)cn1 | 0.37 µg/mL (≈ 0.778 µM) | 0.74 µg/mL (≈ 1.56 µM) | < 1 µM | 0.74 µg/mL (≈ 1.56 µM) | > 64 µg/mL | < 10 nM | < 0.095 µg/mL | 52 nM | 25 nM | 1400 nM | > 64 µg/mL | 0.063 | 100 mL/min/kg | 3.4 | 0.19 µg/mL (≈ 0.4 µM) | 11 L/kg | 
5 | CCNC(=O)Nc1ccc(-c2ncc(C(N)=O)s2)cn1 | 64 µg/mL (≈ 220 µM) | 16 µg/mL (≈ 54.9 µM) |  | 8 µg/mL (≈ 27.5 µM) | > 64 µg/mL | 560 nM | 4 µg/mL (≈ 13.7 µM) | 550 nM | 380 nM | 27000 nM | 32 µg/mL (≈ 110 µM) |  |  |  | > 64 µg/mL |  | 
6 | CCNC(=O)Nc1cc(-c2nc(C(F)(F)F)cs2)c(-c2cncc(-c3nnn[nH]3)c2)cn1 | > 64 µg/mL | 23 µg/mL (≈ 49.8 µM) | 240 µM (≈ 111 µg/mL) | > 64 µg/mL | > 64 µg/mL | < 10 nM | 1.4 µg/mL (≈ 3.03 µM) | < 10 nM | < 10 nM | 260 nM | > 64 µg/mL | 0.14 |  | -0.38 |  |  | 3.7
7 | CCNC(=O)Nc1cc(-c2nc(C(F)(F)F)cs2)c(-c2nc3cccc(C(=O)O)c3s2)cn1 | 3.1 µg/mL (≈ 6.28 µM) | 0.8 µg/mL (≈ 1.62 µM) |  | 1.6 µg/mL (≈ 3.24 µM) | > 64 µg/mL | < 10 nM | 0.05 µg/mL (≈ 0.101 µM) | < 10 nM | < 10 nM | 360 nM | 12 µg/mL (≈ 24.3 µM) |  |  | 0.73 | 6.1 µg/mL (≈ 12.4 µM) |  | 
8 | CCNC(=O)Nc1cc(-c2nc(C(F)(F)F)cs2)c(-c2cncc(C(=O)O)c2)cn1 | > 64 µg/mL | 16 µg/mL (≈ 36.6 µM) | 800 µM (≈ 350 µg/mL) | 64 µg/mL (≈ 146 µM) | > 64 µg/mL | < 10 nM | 2 µg/mL (≈ 4.57 µM) | < 10 nM | < 10 nM | 510 nM | > 64 µg/mL | 0.082 |  | -0.62 |  |  | 3.7
9 | CCNC(=O)Nc1cc(-c2nc(C(F)(F)F)cs2)c(-c2cncc(-c3noc(=O)[nH]3)c2)cn1 | 48 µg/mL (≈ 101 µM) | 12 µg/mL (≈ 25.1 µM) | 830 µM (≈ 396 µg/mL) | 24 µg/mL (≈ 50.3 µM) | > 64 µg/mL | < 10 nM | 0.74 µg/mL (≈ 1.55 µM) | 14 nM | 11 nM | 1500 nM | > 64 µg/mL | 0.011 | 360 mL/min/kg | 0.28 | 48 µg/mL (≈ 101 µM) | 3.5 L/kg | 5.4
10 | CCNC(=O)Nc1cc(-c2nc(C(F)(F)F)cs2)c(-c2cncc(-c3nnc(C)o3)c2)cn1 | 0.19 µg/mL (≈ 0.4 µM) | 0.26 µg/mL (≈ 0.547 µM) | 1 µM (≈ 0.475 µg/mL) | 0.37 µg/mL (≈ 0.778 µM) | > 64 µg/mL | < 10 nM | 0.05 µg/mL (≈ 0.105 µM) | < 10 nM | 15 nM | 510 nM | 33 µg/mL (≈ 69.4 µM) | 0.11 | 123 mL/min/kg | 2.4 | 0.26 µg/mL (≈ 0.547 µM) | 3.3 L/kg | 
11 | CCNC(=O)Nc1cc(-c2nc(C(F)(F)F)cs2)c(-c2ncc(C(=O)O)s2)cn1 | > 64 µg/mL | 22 µg/mL (≈ 49.6 µM) |  | 44 µg/mL (≈ 99.2 µM) | > 64 µg/mL | < 10 nM | 2.8 µg/mL (≈ 6.31 µM) | < 10 nM | < 10 nM | 940 nM | > 64 µg/mL |  |  |  | 44 µg/mL (≈ 99.2 µM) |  | 
12 | CCNC(=O)Nc1cc(-c2nc(C(F)(F)F)cs2)c(-c2cncc(-c3c(C)noc3C)c2)cn1 | > 9 µg/mL | > 9 µg/mL | 6 µM (≈ 2.93 µg/mL) |  | > 9 µg/mL | 68 nM | 4.6 µg/mL (≈ 9.42 µM) | 300 nM | 53 nM | 4800 nM | > 9 µg/mL | 0.045 |  | 3.5 |  |  | 
